Assay results taken from patent publication US7709701B2, “Genetic manipulation of condensed tannins” (The Samuel Roberts Noble Foundation, priority 2004, dated 2010).

Key:
[1] = target: AtBAN (Arabidopsis thaliana BAN) protein (Arabidopsis thaliana, UniProt Q9SEV0); type: biochemical; settings: for Products formed on incubation with AtBAN protein extract: NADPH as coenzyme, 4-month old frozen protein extracts, HPLC
[2] = system: MtBAN (Medicago truncatula BAN homolog) protein; test: Anthocyanidin reductase activity assay with recombinant MtBAN protein extract (HPLC of products); type: biochemical; settings: for Products formed on incubation with MtBAN protein extract: NADPH, 100 mM Tris-HCl pH 7.0, 30° C., 30 min, HPLC
[3] = system: anthocyanidin reductase; test: Anthocyanidin reductase assay with desalted crude enzyme from Lotus corniculatus leaves; type: biochemical; settings: 1 mM NADPH, 100 μM cyanidin, 30° C., 30 min
Method: (§1) Lotus corniculatus, Desmodium uncinatum and Barley cv. Morex were grown in a greenhouse. Young leaves from L. corniculatus, unexpanded leaves, and young pods as well as open flowers and flower buds from D. uncinatum, and young grains from Barley were collected. Seed testas of barley grains were excised and pooled together for enzyme extraction. Mature grape fruit stored at −80° C. was treated in pH 7 100 mM Tris.HCl buffer for 30 seconds for isolating the skin for enzyme extraction.
(§2) A fresh one-gram leaf sample of L. corniculatus, one-gram testa from barley, and 9 grams of grape fruit skin, as well as two grams of flowers, 3 grams of young pods and 3 grams of young unexpanded leaves from Desmodium uncinatum, were independently ground into fine powders in liquid nitrogen. The follow buffer systems were used for enzyme extraction. Extraction buffer 1: pH 7 100 mM Tris.HCl, 10% glycerol and 2 mM 1,4-dithiothreitol; Extraction buffer 2: pH 8 50 mM phosphate buffer, 10% glycerol, 1.5% polyethyleneglycol 4000 (PEG-4000), 2 mM pH 8.0 Na-EDTA, 25 mM sodium ascorbate, 20 mM β-mecaptoenthanol, and 5 mM 1,4-dithiothreitol; Extraction buffer 3: pH 8 100 mM Tris.HCl, 10% glycerol 1.5% polyethyleneglycerol 4000 (PEG-4000), 2 mM pH 8.0 Na-EDTA, 25 mM sodium ascorbate, 80 mM β-mecaptoenthanol, and 5 mM 1,4-dithiothreitol. […]

[4] = system: anthocyanidin reductase; test: Anthocyanidin reductase assay with desalted crude enzyme from barley testa; type: biochemical, Hordeum vulgare; settings: 1 mM NADPH, 100 μM cyanidin, 30° C., 30 min
Method: as §1, §2

[5] = system: anthocyanidin reductase; test: Anthocyanidin reductase assay with desalted crude enzyme from Desmodium uncinatum flowers, leaves and young pods; type: biochemical; settings: 1 mM NADPH, 100 μM cyanidin, 30° C., 30 min
Method: as §1, §2

[6] = target: T1, anthocyanidin reductase (Vitis vinifera, UniProt Q5FB34); test: Anthocyanidin reductase assay with desalted crude enzyme from grape fruit skin; type: biochemical; settings: 1 mM NADPH, 100 μM cyanidin, 30° C., 30 min
T1 construct: 100 μM cyanidin and 50-25 μg desalted crude enzyme; from tissue; host or cells: skin of mature grape fruit
T1 sequence (Q5FB34 whole entry R248Q): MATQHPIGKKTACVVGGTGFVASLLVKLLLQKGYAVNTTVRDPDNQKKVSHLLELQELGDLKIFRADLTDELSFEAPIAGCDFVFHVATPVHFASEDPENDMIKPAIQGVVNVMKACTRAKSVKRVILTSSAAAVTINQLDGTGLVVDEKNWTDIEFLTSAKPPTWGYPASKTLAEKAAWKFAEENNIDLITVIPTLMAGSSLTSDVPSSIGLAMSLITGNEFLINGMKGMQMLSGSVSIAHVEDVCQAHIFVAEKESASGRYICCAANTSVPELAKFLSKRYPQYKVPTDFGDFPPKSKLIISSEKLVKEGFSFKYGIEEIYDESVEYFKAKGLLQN
Method: as §1, §2

[7] = reactions containing leucoanthocyanidins

Sequence of AtBAN (Arabidopsis thaliana BAN) protein (Q9SEV0 other isoform, or with tags, fused parts or gaps K55Q/I146L/V156I/E157D/T179K/K185E): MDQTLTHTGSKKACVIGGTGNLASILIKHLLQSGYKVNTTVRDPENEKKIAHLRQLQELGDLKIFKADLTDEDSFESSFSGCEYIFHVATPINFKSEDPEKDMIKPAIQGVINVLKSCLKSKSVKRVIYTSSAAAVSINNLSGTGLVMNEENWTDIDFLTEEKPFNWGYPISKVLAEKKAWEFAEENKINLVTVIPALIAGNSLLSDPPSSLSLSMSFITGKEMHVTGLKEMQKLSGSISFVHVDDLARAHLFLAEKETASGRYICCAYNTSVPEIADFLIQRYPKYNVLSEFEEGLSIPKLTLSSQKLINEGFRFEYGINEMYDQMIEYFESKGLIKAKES

Compound	Products formed on incubation with AtBAN protein extract [1]	Products formed on incubation with MtBAN protein extract [2]	further results
Oc1cc(O)c2c(c1)O[C@H](c1ccc(O)c(O)c1)[C@@H](O)C2 [(+)-catechin]	does not produce (2S,3R) configuration (−) catechin or (−)epicatechin	does not produce (2S,3R) configuration (−) catechin or (−)epicatechin	
Oc1cc(O)c2c(c1)O[C@H](c1ccc(O)c(O)c1)[C@H](O)C2 [(−)epicatechin, (−)-epicatechin]	does not produce (2S,3R) configuration (−) catechin or (−)epicatechin	does not produce (2S,3R) configuration (−) catechin or (−)epicatechin	
NC(=O)C1=CN([C@@H]2O[C@H](COP(=O)(O)OP(=O)(O)OC[C@H]3O[C@@H](n4cnc5c(N)ncnc54)[C@H](O)[C@@H]3O)[C@@H](O)[C@H]2O)C=CC1 [NADH]			Conversion with NADH relative to the level achieved with NADPH ([2]; NADH 2 mM final concentration substituted for NADPH): approximately 50%
Oc1cc(O)c2cc(O)c(-c3ccc(O)c(O)c3)[o+]c2c1.[Cl-] [cyanidin, cyanidin chloride]	catalyze the reduction of cyanidin to epicatechin	reducing cyanidin to the corresponding flavan-3-ols, catechin and epicatechin	Product formed by Lotus corniculatus leaf enzyme [3]: converted cyanidin into epicatechin; Product formed by barley testa enzyme [4]: converted cyanidin into epicatechin; Product formed by Desmodium uncinatum flower, leaf and young pod enzyme [5]: converted cyanidin into epicatechin; Product formed by grape fruit skin enzyme [6]: converted cyanidin into epicatechin
Oc1cc(O)c2cc(O)c(-c3cc(O)c(O)c(O)c3)[o+]c2c1 [delphinidin, delphinidin chloride]	delphinidin into gallocatechin	catalyzed the reduction of delphinidin into putative gallo-catechin and epi-gallocatechin	
Oc1ccc(-c2[o+]c3cc(O)cc(O)c3cc2O)cc1 [pelargonidin, Pelargonidin chloride]	pelargonidin into epi-alfzelechin	catalyzed the reduction of pelargonidin into a new compound eluting at 33.6 min	
leucoanthocyanidins			LAR activity with recombinant AtBAN [1, 7]: no LAR activity was observed; LAR activity with recombinant MtBAN [2, 7]: no LAR activity was observed
